Reference: PMC8699473, “An Easily Expandable Multi-Drug LC-MS Assay for the Simultaneous Quantification of 57 Oral Antitumor Drugs in Human Plasma” (Cancers, 2021)

Experiment: Long-term stability in spiked pooled human plasma

Question: With `CC(=O)Nc1cccc(-n2c(=O)n(C3CC3)c(=O)c3c(Nc4ccc(I)cc4F)n(C)c(=O)c(C)c32)c1` [Trametinib] as the compound, how does the “Long-term stability, 1 month, -20°C Accuracy [%]” value (validation standard 2xLLOV) read?
Answer: 105.1%

Question: And the “Long-term stability, 1 month, -80°C Accuracy [%]” value (validation standard 2xLLOV)?
Answer: 110.9%

Question: And the “Long-term stability, 2 month, -20°C Accuracy [%]” value (validation standard 2xLLOV)?
Answer: 123.9%

Question: And the “Long-term stability, 2 month, -80°C Accuracy [%]” value (validation standard 2xLLOV)?
Answer: 104.2%

Question: What about the “Long-term stability, 3 month, -20°C Accuracy [%]” value (validation standard 2xLLOV) of the same compound?
Answer: 105.5%

Question: What about the “Long-term stability, 3 month, -80°C Accuracy [%]” value (validation standard 2xLLOV) of the same compound?
Answer: 103.8%

Question: And the “Long-term stability, 6 weeks, 4°C, without daylight Accuracy [%]” value (validation standard 2xLLOV)?
Answer: 97.4%

Question: And the “Long-term stability, 1 month, -20°C Accuracy [%]” value (validation standard LLOV)?
Answer: 111.6%

Question: And the “Long-term stability, 1 month, -80°C Accuracy [%]” value (validation standard LLOV)?
Answer: 101.9%

Question: What about the “Long-term stability, 2 month, -20°C Accuracy [%]” value (validation standard LLOV) of the same compound?
Answer: 111.6%

Question: And the “Long-term stability, 2 month, -80°C Accuracy [%]” value (validation standard LLOV)?
Answer: 103.4%

Question: What about the “Long-term stability, 3 month, -20°C Accuracy [%]” value (validation standard LLOV) of the same compound?
Answer: 96.6%

Question: What about the “Long-term stability, 3 month, -80°C Accuracy [%]” value (validation standard LLOV) of the same compound?
Answer: 104.8%

Question: And the “Long-term stability, 6 weeks, 4°C, without daylight Accuracy [%]” value (validation standard LLOV)?
Answer: 101.5%

Question: And the “Long-term stability, 1 month, -20°C Accuracy [%]” value (validation standard MOV)?
Answer: 105.2%

Question: And the “Long-term stability, 1 month, -80°C Accuracy [%]” value (validation standard MOV)?
Answer: 107.1%

Question: And the “Long-term stability, 2 month, -20°C Accuracy [%]” value (validation standard MOV)?
Answer: 116.1%

Question: And the “Long-term stability, 2 month, -80°C Accuracy [%]” value (validation standard MOV)?
Answer: 117.6%

Question: What about the “Long-term stability, 3 month, -20°C Accuracy [%]” value (validation standard MOV) of the same compound?
Answer: 102.9%

Question: And the “Long-term stability, 3 month, -80°C Accuracy [%]” value (validation standard MOV)?
Answer: 102.5%

Question: And the “Long-term stability, 6 weeks, 4°C, without daylight Accuracy [%]” value (validation standard MOV)?
Answer: 103.9%

Question: And the “Long-term stability, 1 month, -20°C Accuracy [%]” value (validation standard ULOV)?
Answer: 103.2%

Question: What about the “Long-term stability, 1 month, -80°C Accuracy [%]” value (validation standard ULOV) of the same compound?
Answer: 99.6%

Question: And the “Long-term stability, 2 month, -20°C Accuracy [%]” value (validation standard ULOV)?
Answer: 119.8%

Question: What about the “Long-term stability, 2 month, -80°C Accuracy [%]” value (validation standard ULOV) of the same compound?
Answer: 115.3%

Question: What about the “Long-term stability, 3 month, -20°C Accuracy [%]” value (validation standard ULOV) of the same compound?
Answer: 94.5%

Question: What about the “Long-term stability, 3 month, -80°C Accuracy [%]” value (validation standard ULOV) of the same compound?
Answer: 106.9%

Question: What about the “Long-term stability, 6 weeks, 4°C, without daylight Accuracy [%]” value (validation standard ULOV) of the same compound?
Answer: 94.7%

Question: Which results are given for `O=C(Nc1cnn2ccc(N3CCC[C@@H]3c3cc(F)ccc3F)nc12)N1CC[C@H](O)C1` [Larotrectinib]?
Answer: Long-term stability, 1 month, -20°C Accuracy [%] (validation standard 2xLLOV): 97.9%; Long-term stability, 1 month, -80°C Accuracy [%] (validation standard 2xLLOV): 92.9%; Long-term stability, 2 month, -20°C Accuracy [%] (validation standard 2xLLOV): 103.6%; Long-term stability, 2 month, -80°C Accuracy [%] (validation standard 2xLLOV): 104.7%; Long-term stability, 3 month, -20°C Accuracy [%] (validation standard 2xLLOV): 100.8%; Long-term stability, 3 month, -80°C Accuracy [%] (validation standard 2xLLOV): 98.8%; Long-term stability, 6 weeks, 4°C, without daylight Accuracy [%] (validation standard 2xLLOV): 106.7%; Long-term stability, 1 month, -20°C Accuracy [%] (validation standard LLOV): 85.6%; Long-term stability, 1 month, -80°C Accuracy [%] (validation standard LLOV): 87.5%; Long-term stability, 2 month, -20°C Accuracy [%] (validation standard LLOV): 103.5%; Long-term stability, 2 month, -80°C Accuracy [%] (validation standard LLOV): 102.1%; Long-term stability, 3 month, -20°C Accuracy [%] (validation standard LLOV): 96.4%; Long-term stability, 3 month, -80°C Accuracy [%] (validation standard LLOV): 94.2%; Long-term stability, 6 weeks, 4°C, without daylight Accuracy [%] (validation standard LLOV): 115.2%; Long-term stability, 1 month, -20°C Accuracy [%] (validation standard MOV): 96.7%; Long-term stability, 1 month, -80°C Accuracy [%] (validation standard MOV): 97.2%; Long-term stability, 2 month, -20°C Accuracy [%] (validation standard MOV): 99.1%; Long-term stability, 2 month, -80°C Accuracy [%] (validation standard MOV): 103.2%; Long-term stability, 3 month, -20°C Accuracy [%] (validation standard MOV): 96.2%; Long-term stability, 3 month, -80°C Accuracy [%] (validation standard MOV): 91.1%; Long-term stability, 6 weeks, 4°C, without daylight Accuracy [%] (validation standard MOV): 105.2%; Long-term stability, 1 month, -20°C Accuracy [%] (validation standard ULOV): 95.0%; Long-term stability, 1 month, -80°C Accuracy [%] (validation standard ULOV): 95.5%; Long-term stability, 2 month, -20°C Accuracy [%] (validation standard ULOV): 102.5%; Long-term stability, 2 month, -80°C Accuracy [%] (validation standard ULOV): 104.6%; Long-term stability, 3 month, -20°C Accuracy [%] (validation standard ULOV): 97.8%; Long-term stability, 3 month, -80°C Accuracy [%] (validation standard ULOV): 95.6%; Long-term stability, 6 weeks, 4°C, without daylight Accuracy [%] (validation standard ULOV): 98.0%

Question: With `Cc1cc(Nc2ncc(Cl)c(Nc3ccccc3S(=O)(=O)C(C)C)n2)c(OC(C)C)cc1C1CCNCC1` [Ceritinib] as the compound, how does the “Long-term stability, 1 month, -20°C Accuracy [%]” value (validation standard 2xLLOV) read?
Answer: 94.3%

Question: And the “Long-term stability, 1 month, -80°C Accuracy [%]” value (validation standard 2xLLOV)?
Answer: 89.5%

Question: And the “Long-term stability, 2 month, -20°C Accuracy [%]” value (validation standard 2xLLOV)?
Answer: 94.4%

Question: What about the “Long-term stability, 2 month, -80°C Accuracy [%]” value (validation standard 2xLLOV) of the same compound?
Answer: 96.4%

Question: What about the “Long-term stability, 3 month, -20°C Accuracy [%]” value (validation standard 2xLLOV) of the same compound?
Answer: 91.8%

Question: And the “Long-term stability, 3 month, -80°C Accuracy [%]” value (validation standard 2xLLOV)?
Answer: 93.4%

Question: And the “Long-term stability, 6 weeks, 4°C, without daylight Accuracy [%]” value (validation standard 2xLLOV)?
Answer: 77.8%

Question: And the “Long-term stability, 1 month, -20°C Accuracy [%]” value (validation standard LLOV)?
Answer: 101.5%

Question: And the “Long-term stability, 1 month, -80°C Accuracy [%]” value (validation standard LLOV)?
Answer: 96.1%

Question: What about the “Long-term stability, 2 month, -20°C Accuracy [%]” value (validation standard LLOV) of the same compound?
Answer: 99.7%

Question: And the “Long-term stability, 2 month, -80°C Accuracy [%]” value (validation standard LLOV)?
Answer: 103.7%

Question: What about the “Long-term stability, 3 month, -20°C Accuracy [%]” value (validation standard LLOV) of the same compound?
Answer: 96.9%

Question: What about the “Long-term stability, 3 month, -80°C Accuracy [%]” value (validation standard LLOV) of the same compound?
Answer: 100.3%

Question: And the “Long-term stability, 6 weeks, 4°C, without daylight Accuracy [%]” value (validation standard LLOV)?
Answer: 78.9%

Question: What about the “Long-term stability, 1 month, -20°C Accuracy [%]” value (validation standard MOV) of the same compound?
Answer: 93.3%

Question: What about the “Long-term stability, 1 month, -80°C Accuracy [%]” value (validation standard MOV) of the same compound?
Answer: 93.7%

Question: And the “Long-term stability, 2 month, -20°C Accuracy [%]” value (validation standard MOV)?
Answer: 94.6%

Question: And the “Long-term stability, 2 month, -80°C Accuracy [%]” value (validation standard MOV)?
Answer: 95.5%

Question: And the “Long-term stability, 3 month, -20°C Accuracy [%]” value (validation standard MOV)?
Answer: 94.1%

Question: What about the “Long-term stability, 3 month, -80°C Accuracy [%]” value (validation standard MOV) of the same compound?
Answer: 95.7%

Question: What about the “Long-term stability, 6 weeks, 4°C, without daylight Accuracy [%]” value (validation standard MOV) of the same compound?
Answer: 104.9%

Question: And the “Long-term stability, 1 month, -20°C Accuracy [%]” value (validation standard ULOV)?
Answer: 97.3%

Question: And the “Long-term stability, 1 month, -80°C Accuracy [%]” value (validation standard ULOV)?
Answer: 94.0%

Question: And the “Long-term stability, 2 month, -20°C Accuracy [%]” value (validation standard ULOV)?
Answer: 99.1%

Question: What about the “Long-term stability, 2 month, -80°C Accuracy [%]” value (validation standard ULOV) of the same compound?
Answer: 100.5%

Question: What about the “Long-term stability, 3 month, -20°C Accuracy [%]” value (validation standard ULOV) of the same compound?
Answer: 101.8%

Question: What about the “Long-term stability, 3 month, -80°C Accuracy [%]” value (validation standard ULOV) of the same compound?
Answer: 100.0%

Question: What about the “Long-term stability, 6 weeks, 4°C, without daylight Accuracy [%]” value (validation standard ULOV) of the same compound?
Answer: 97.9%
